ChEMBL document CHEMBL1145340, “Potential lead for an Alzheimer drug: a peptide that blocks intermolecular interaction and amyloid beta protein-induced cytotoxicity” (J Med Chem, 2006)
Calls of active or inactive are those of the source. The calls are words filed in the database; no cut-off is given here. Peptide text beside a SMILES is read from it.

Tests used:
PC-12 [1] = assay: Protection against beta amyloid 42-induced neurotoxicity in rat PC12 cells by MTT reduction assay; format: functional, cell-based
[2] = biological target: Amyloid-beta precursor protein (Homo sapiens) (UniProt P05067); assay: Binding affinity to beta amyloid 42 by ELISA
Sequence of Amyloid-beta precursor protein (Homo sapiens) (P05067 whole entry): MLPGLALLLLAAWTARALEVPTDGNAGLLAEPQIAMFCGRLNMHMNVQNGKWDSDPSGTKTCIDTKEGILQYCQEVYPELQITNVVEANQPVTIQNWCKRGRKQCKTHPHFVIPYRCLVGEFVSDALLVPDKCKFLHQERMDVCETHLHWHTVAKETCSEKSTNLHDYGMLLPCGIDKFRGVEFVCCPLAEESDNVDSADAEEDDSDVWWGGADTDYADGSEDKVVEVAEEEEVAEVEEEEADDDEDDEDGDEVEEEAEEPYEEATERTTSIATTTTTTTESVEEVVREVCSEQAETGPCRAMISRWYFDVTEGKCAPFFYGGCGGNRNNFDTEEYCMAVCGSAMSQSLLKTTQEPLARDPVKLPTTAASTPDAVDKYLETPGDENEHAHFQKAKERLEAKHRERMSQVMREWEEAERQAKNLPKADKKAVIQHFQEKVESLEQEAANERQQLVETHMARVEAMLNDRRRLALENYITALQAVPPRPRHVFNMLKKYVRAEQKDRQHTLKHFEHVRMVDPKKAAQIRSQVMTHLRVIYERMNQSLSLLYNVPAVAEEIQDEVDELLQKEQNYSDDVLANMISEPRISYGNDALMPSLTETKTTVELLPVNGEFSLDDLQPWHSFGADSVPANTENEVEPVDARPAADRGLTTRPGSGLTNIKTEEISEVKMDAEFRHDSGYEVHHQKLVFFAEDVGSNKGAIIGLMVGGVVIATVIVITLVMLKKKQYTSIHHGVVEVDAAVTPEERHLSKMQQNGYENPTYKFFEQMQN

[3] = biological target: Amyloid-beta precursor protein (Homo sapiens) (UniProt P05067); assay: Inhibition of self-aggregation of beta amyloid 42 by thioflavin T assay; format: functional
PC-12 [4] = assay: Neutralizing activity against beta amyloid 42-induced cytotoxicity in rat PC12 cells at 100 uM by MTT reduction assay; format: functional, cell-based
[5] = biological target: Amyloid-beta precursor protein (Homo sapiens) (UniProt P05067); assay: Binding affinity to beta amyloid 42 at 10 uM to 100 uM by ELISA

Molecule | Activity (PC-12 [1]) | further results
CC(C)[C@H](NC(=O)[C@H](Cc1ccccc1)NC(=O)[C@@H](N)[C@H](C)O)C(=O)N[C@@H](CCCN=C(N)N)C(=O)N[C@H](C(=O)O)[C@H](C)O | inactive | 
CC(C)[C@H](NC(=O)[C@H](Cc1ccccc1)NC(=O)[C@@H](NC(=O)[C@@H](N)CS)[C@H](C)O)C(=O)N[C@@H](CCCN=C(N)N)C(=O)O | inactive | Activity [2]: Active
CC[C@H](C)[C@H](NC(=O)[C@H](Cc1c[nH]cn1)NC(=O)[C@@H](NC(=O)[C@H](CCCN=C(N)N)NC(=O)[C@@H](NC(=O)[C@H](Cc1ccccc1)NC(=O)[C@@H](NC(=O)[C@@H](N)CS)[C@@H](C)O)C(C)C)[C@@H](C)O)C(=O)N[C@@H](Cc1ccccc1)C(=O)N[C@@H](CS)C(=O)N[C@@H](CCCCN)C(=O)N[C@@H](CCC(=O)O)C(=O)N[C@@H](Cc1c[nH]cn1)C(=O)N[C@@H](CCC(N)=O)C(=O)N[C@@H](Cc1ccccc1)C(=O)O (H-CTFVRTHIFCKEHQF-OH) | Dose-dependent effect | Activity [3]: Dose-dependent effect; Activity [2]: Active
H-CKEHQ-OH | inactive | 
H-FCKEH-OH | inactive | 
H-FNHKKRLLHPSLFPR-OH |  | Activity [3]: inactive; Activity [2]: inactive
H-FVRTH-OH | inactive | 
H-HESNDCTFV-OH |  | Activity [2]: inactive
H-HESNDCTFVRT-OH |  | Activity (PC-12 [4]): inactive; Activity [5]: Active
H-HIFCK-OH | inactive | 
H-IFCKE-OH | inactive | 
H-KEHQF-OH | inactive | Activity [3]: inactive
H-THIFC-OH | inactive | 
H-VRTHI-OH | inactive | 
